In PubChem BioAssay (NCI):
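Following 48 hours of exposure in 96-well plates, responses at five concentrations were used to interpolate endpoints linearly. TGI: total growth inhibition.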

Tests used:
Experiment in all cases: growth of human tumour cells (NCI), 48 h
OVCAR-8 ovarian = tested on: OVCAR-8 ovarian
SW-620 colon = tested on: SW-620 colon
IGROV1 ovarian = tested on: IGROV1 ovarian
SNB-19 CNS = tested on: SNB-19 CNS
DLD-1 colon = tested on: DLD-1 colon
M19-MEL melanoma = tested on: M19-MEL melanoma
XF 498 CNS = tested on: XF 498 CNS
SNB-75 CNS = tested on: SNB-75 CNS
UACC-62 melanoma = tested on: UACC-62 melanoma
COLO 205 colon = tested on: COLO 205 colon
UACC-257 melanoma = tested on: UACC-257 melanoma
TK-10 renal = tested on: TK-10 renal
CAKI-1 renal = tested on: CAKI-1 renal
LOX IMVI melanoma = tested on: LOX IMVI melanoma
SF-268 CNS = tested on: SF-268 CNS
DMS 273 small cell lung = tested on: DMS 273 small cell lung
OVCAR-4 ovarian = tested on: OVCAR-4 ovarian
OVCAR-3 ovarian = tested on: OVCAR-3 ovarian
KM20L2 colon = tested on: KM20L2 colon
SK-MEL-2 melanoma = tested on: SK-MEL-2 melanoma
OVCAR-5 ovarian = tested on: OVCAR-5 ovarian
HL-60(TB) leukemia = tested on: HL-60(TB) leukemia
EKVX NSCLC = tested on: EKVX NSCLC
K-562 leukemia = tested on: K-562 leukemia
RPMI-8226 leukemia = tested on: RPMI-8226 leukemia
MOLT-4 leukemia = tested on: MOLT-4 leukemia
HCT-15 colon = tested on: HCT-15 colon
SNB-78 CNS = tested on: SNB-78 CNS
ACHN renal = tested on: ACHN renal
SK-MEL-5 melanoma = tested on: SK-MEL-5 melanoma
NCI-H460 lung = tested on: NCI-H460 lung
HOP-62 NSCLC = tested on: HOP-62 NSCLC
CCRF-CEM leukemia = tested on: CCRF-CEM leukemia
UO-31 renal = tested on: UO-31 renal
HCC-2998 colon = tested on: HCC-2998 colon
HOP-92 NSCLC = tested on: HOP-92 NSCLC
SN12C renal = tested on: SN12C renal
SK-MEL-28 melanoma = tested on: SK-MEL-28 melanoma
RXF-631 renal = tested on: RXF-631 renal
NCI-H23 lung = tested on: NCI-H23 lung
SK-OV-3 ovarian = tested on: SK-OV-3 ovarian
MALME-3M melanoma = tested on: MALME-3M melanoma
M14 melanoma = tested on: M14 melanoma
SF-295 CNS = tested on: SF-295 CNS
KM12 colon = tested on: KM12 colon
DMS 114 small cell lung = tested on: DMS 114 small cell lung
A549 NSCLC = tested on: A549 NSCLC
786-0 renal = tested on: 786-0 renal
NCI-H522 lung = tested on: NCI-H522 lung
LXFL 529 NSCLC = tested on: LXFL 529 NSCLC
RXF 393 renal = tested on: RXF 393 renal
HT29 colon = tested on: HT29 colon
SF-539 CNS = tested on: SF-539 CNS
HCT-116 colon = tested on: HCT-116 colon
SR leukemia = tested on: SR leukemia
U251 CNS = tested on: U251 CNS
NCI-H226 lung = tested on: NCI-H226 lung
HOP-18 NSCLC = tested on: HOP-18 NSCLC
A498 renal = tested on: A498 renal

Measured: TGI

CN(C)c1ccc2c(=O)c3ccccc3oc2n1
> 100 µM: OVCAR-8 ovarian | SW-620 colon | IGROV1 ovarian | SNB-19 CNS | DLD-1 colon | M19-MEL melanoma | XF 498 CNS | SNB-75 CNS | UACC-62 melanoma | COLO 205 colon | UACC-257 melanoma | TK-10 renal | CAKI-1 renal | LOX IMVI melanoma | SF-268 CNS | DMS 273 small cell lung | OVCAR-4 ovarian | OVCAR-3 ovarian | KM20L2 colon | SK-MEL-2 melanoma | OVCAR-5 ovarian | HL-60(TB) leukemia | EKVX NSCLC | K-562 leukemia | RPMI-8226 leukemia | MOLT-4 leukemia | HCT-15 colon | SNB-78 CNS | ACHN renal | SK-MEL-5 melanoma | NCI-H460 lung | HOP-62 NSCLC | CCRF-CEM leukemia | UO-31 renal | HCC-2998 colon | HOP-92 NSCLC | SN12C renal | SK-MEL-28 melanoma | RXF-631 renal | NCI-H23 lung | SK-OV-3 ovarian | MALME-3M melanoma | M14 melanoma | SF-295 CNS | KM12 colon | DMS 114 small cell lung | A549 NSCLC | 786-0 renal | NCI-H522 lung | LXFL 529 NSCLC | RXF 393 renal

ON/N=C/c1cc2c(cc1Br)OCO2
> 386 µM: HT29 colon | OVCAR-8 ovarian | SW-620 colon | IGROV1 ovarian | SNB-19 CNS | SF-539 CNS | DLD-1 colon | M19-MEL melanoma | UACC-62 melanoma | HCT-116 colon | COLO 205 colon | SR leukemia | UACC-257 melanoma | TK-10 renal | CAKI-1 renal | LOX IMVI melanoma | SF-268 CNS | DMS 273 small cell lung | OVCAR-3 ovarian | KM20L2 colon | SK-MEL-2 melanoma | OVCAR-5 ovarian | HL-60(TB) leukemia | EKVX NSCLC | K-562 leukemia | RPMI-8226 leukemia | MOLT-4 leukemia | ACHN renal | U251 CNS | NCI-H226 lung | SK-MEL-5 melanoma | NCI-H460 lung | HOP-62 NSCLC | CCRF-CEM leukemia | HCC-2998 colon | HOP-92 NSCLC | SN12C renal | SK-MEL-28 melanoma | RXF-631 renal | NCI-H23 lung | SK-OV-3 ovarian | MALME-3M melanoma | SF-295 CNS | HOP-18 NSCLC | KM12 colon | DMS 114 small cell lung | A549 NSCLC | 786-0 renal | NCI-H522 lung | LXFL 529 NSCLC | RXF 393 renal

CC(C)(C)OC1=C(OC(C)(C)C)C(O)(c2ccccc2)C1=O (stereo not given)
> 100 µM: HT29 colon | OVCAR-8 ovarian | SW-620 colon | IGROV1 ovarian | SNB-19 CNS | SF-539 CNS | DLD-1 colon | A498 renal | M19-MEL melanoma | SNB-75 CNS | UACC-62 melanoma | COLO 205 colon | TK-10 renal | LOX IMVI melanoma | SF-268 CNS | DMS 273 small cell lung | OVCAR-4 ovarian | OVCAR-3 ovarian | OVCAR-5 ovarian | HL-60(TB) leukemia | EKVX NSCLC | K-562 leukemia | RPMI-8226 leukemia | MOLT-4 leukemia | HCT-15 colon | SNB-78 CNS | ACHN renal | U251 CNS | SK-MEL-5 melanoma | NCI-H460 lung | CCRF-CEM leukemia | UO-31 renal | HCC-2998 colon | SN12C renal | SK-MEL-28 melanoma | RXF-631 renal | NCI-H23 lung | SK-OV-3 ovarian | MALME-3M melanoma | M14 melanoma | SF-295 CNS | HOP-18 NSCLC | KM12 colon | DMS 114 small cell lung | A549 NSCLC | 786-0 renal | LXFL 529 NSCLC | RXF 393 renal
